# Experimental data reported in article PMC9663578, “A fluorogenic probe for predicting treatment response in non-small cell lung cancer with EGFR-activating mutations” (Nature Communications, 2022).
# Several values for one entry are separate records, joined by “and”; a condition that tells them apart may be missing. Equal values may be shown once.
# Experiments:
# EGFR 19del = target: T1, EGFR 19del (Homo sapiens, UniProt P00533, DEL746-750); assay: Kinase inhibition assay (fluorescent mobility-shift assay); type: biochemical; design: Kinase activity: unit not given here; details: for Kinase activity: 19del, n=1-3;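 for decrease of inhibition toward T790M compared to 19del: Cell-free assay with recombinant human EGFR T790M enzyme, compound preincubated with the kinase at room temperature before the reaction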;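 for decrease of inhibition toward T790M compared to L858R: Cell-free assay with recombinant human EGFR T790M enzyme, compound preincubated with the kinase at room temperature before the reaction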
# T1 construct: purchased Thermo Fisher PV6179
# T1 sequence (P00533 with tags, fused parts or gaps DEL746-750): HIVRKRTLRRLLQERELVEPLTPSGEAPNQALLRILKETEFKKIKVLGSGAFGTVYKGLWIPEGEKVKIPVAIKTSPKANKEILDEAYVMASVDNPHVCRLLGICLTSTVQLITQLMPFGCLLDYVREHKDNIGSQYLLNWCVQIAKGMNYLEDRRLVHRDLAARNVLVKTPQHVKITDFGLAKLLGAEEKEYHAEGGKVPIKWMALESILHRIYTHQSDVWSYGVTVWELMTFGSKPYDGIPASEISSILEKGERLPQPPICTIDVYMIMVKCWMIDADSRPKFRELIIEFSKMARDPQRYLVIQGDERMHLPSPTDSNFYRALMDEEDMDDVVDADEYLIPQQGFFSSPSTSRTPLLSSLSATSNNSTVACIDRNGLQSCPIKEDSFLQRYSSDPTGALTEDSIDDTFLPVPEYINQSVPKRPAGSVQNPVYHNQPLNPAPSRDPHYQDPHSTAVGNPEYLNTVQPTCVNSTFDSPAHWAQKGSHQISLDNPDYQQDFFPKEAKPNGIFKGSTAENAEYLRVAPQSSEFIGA
# EGFR T790M = target: T2, EGFR T790M (Homo sapiens, UniProt P00533, T790M); assay: as above; type: biochemical; design: Kinase activity: unit not given here; details: for Kinase activity: T790M, n=1-3
# T2 construct: EGFR T790M (amino acids 668–1210, #PR8052A); purchased Thermo Fisher PR8052A
# T2 sequence (P00533 668-1210 T790M): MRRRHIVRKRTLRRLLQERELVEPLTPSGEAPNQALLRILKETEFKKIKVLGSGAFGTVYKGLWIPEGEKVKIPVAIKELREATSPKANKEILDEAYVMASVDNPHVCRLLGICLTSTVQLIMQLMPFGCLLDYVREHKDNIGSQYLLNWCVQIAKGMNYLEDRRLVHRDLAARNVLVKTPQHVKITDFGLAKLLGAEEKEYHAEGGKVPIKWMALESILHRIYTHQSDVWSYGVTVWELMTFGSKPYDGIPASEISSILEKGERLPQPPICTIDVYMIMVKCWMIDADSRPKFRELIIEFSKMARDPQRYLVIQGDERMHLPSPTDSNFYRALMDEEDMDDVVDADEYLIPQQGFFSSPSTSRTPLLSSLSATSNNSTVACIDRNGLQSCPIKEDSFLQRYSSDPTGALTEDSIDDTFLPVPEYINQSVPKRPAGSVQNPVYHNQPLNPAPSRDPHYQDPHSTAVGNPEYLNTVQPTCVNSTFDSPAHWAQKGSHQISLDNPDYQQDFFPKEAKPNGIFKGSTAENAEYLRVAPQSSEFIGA
# MTT cytotoxicity assay = type: cell-based; details: human, A431 cells, EGFR wild-type, n=3
# PC-9 cells [1] = assay: MTT cytotoxicity assay; type: cell-based; details: Homo sapiens, EGFR 19del, 48 h, n=3
# [2] = Measurement of optical properties; type: physicochemical; details: for Fluorescence intensity, HX103 only: Fig. 2a
# Method: page 66: […] Measurement of optical properties In the study, UV-vis spectra of the probes were determined on a Hitachi U-2910. The fluorescence spectroscopic experiments were performed on BioTek microplate reader and Horiba Jobin Yvon - Edison Fluoromax-4. Absolute fluorescence quantum efficiency was measured by an absolute quantum yield spectrometer (Horiba Jobin Yvon-Edison Fluoromax-4). The tested probe was dissolved in dimethyl sulfoxide (DMSO) to obtain stock solutions (10 mM). The prepared stock […] concentration solution, containing 0.1% (v/v) DMSO as a cosolvent. For the in vitro kinase […] The excitation and emission fluorescence spectra of the solution before/after addition o f different concentration […] Data analysis:The obtained fluorescence intensity at 570 nm (Excitation wavelength was 440 nm) in each sample was normalized by using the fluorescence intensity of HX103 in the presence of EGFR. Specifically, the fluorescence intensity of HX103 in the presence of EGFR wild-type […] 66
# H1975 cells = assay: Subcellular co-localization of HX103 (confocal); type: cell-based, human; details: HX103 5 µM, 0.5 h, ER/Mito/Lyso trackers
# Method: Supplementary Figure 6. Application of HX103 in living cells. (a-c) Subcellular co-localization of HX103 with Lyso tracker (a), Mito tracker (b) or ER tracker (c). H1975 cells were treated with HX103 (5 µM, 0.5 h) and stained with Lyso tracker ([…], 30 min), Mito tracker (100 nM, 15 min) or ER tracker (500 nM, 15 min). After a PBS washing, the cells were used for confocal microscopy. Scale bar, 20 µm. Three biological independent experiments were repeated with similar results. (d) The mean fluorescence intensity analysis along white arrows in the overlay image in (a-c). Source data are provided as a Source Data file.
# (1 picture or pasted object on this page, not shown here)
# A549 cells = assay: FACS assay in cultured cells; details: for HX103 dose-dependent signal (Supplementary Fig. 18): 20 µM = 100
# Method: (§1) Briefly, the cultured cells were seeded on the petri dish and counted using Count star BioMed automated cell counter. Around 10^6 live-cells were collected and were pelleted (2000×g, 3 min), followed by washing with PBS (2x). Cells were then resuspended in PBS buffer containing 0.1% BSA (1 × 10^6 cells/mL). […] The cell suspension was resuspended in PBS and analyzed with a FACSVerse^TM flow cytometer (BD Biosciences, LSRFortessa). About 10,000 events per tube were analyzed and the mean fluorescence intensity was detected and analyzed.
# (§2) For the FACS assay with EGFR antibody, around 10^6 live-cells were collected and washed with PBS (2x). The cells were fixed by 400 µL 4% paraformaldehyde for 15 min at room temperature, followed by permeabilization with 0.1% Triton X-100 for 10 min and blocking with 5% BSA for 30 min. […] The cells were then washed with 0.5% BSA/PBS (3x) and resuspended in 400 µL of 0.1% BSA/PBS. […] The resuspended cell suspension was then analyzed on a FACSVerseTM flow cytometer (BD Biosciences, LSRFortessa). Nonspecific fluorescence binding was omitted by Rabbit mAb IgG isotype control (#3900, CST, 1:100) and the corresponding mean fluorescence was subtracted from the signal measured with each primary antibody. About 10,000 events per tube were analyzed and the mean fluorescence intensity was detected and analyzed.
# (§3) Subsequently, the treated cells were incubated for 30 min at 37 °C, followed by washing with PBS buffer three times. […] Finally, the co-stained cells were washed with 0.5% BSA/PBS for three times and resuspended in 400 µL of 0.1% BSA/PBS. The obtained cell suspension was ready for analysis. Nonspecific fluorescence binding was omitted by Rabbit mAb IgG isotype control (#3900, CST, 1:100) as described above.
# (§4) Nonspecific fluorescence binding was omitted by Rabbit mAb IgG isotype control (#3900, CST, 1:100). […] After incubation for another 30 min at room temperature, the co-stained cells were washed with 0.5% BSA/PBS for three times and resuspended in 400 µL of 0.1% BSA/PBS. The obtained cell suspension was ready for analysis. Nonspecific fluorescence binding was omitted by Rabbit mAb IgG isotype control (#3900, CST, 1:100) as described above.
# (§5) The cells were seeded on the petri dish and cultured at the normal condition with 10% FBS, and that was changed to serum-free condition for 24 h when the cells proliferated at ~80% confluence. […] Nonspecific fluorescence binding was omitted by Rabbit mAb IgG isotype control (#3900, CST, 1:100) as described above.
# PC-9 cells [3] = assay: FACS assay in cultured cells; details: for HX103 dose-dependent signal (Supplementary Fig. 18): 20 µM = 100
# Method: The FACS assay was performed according to the reported literatures[67],[68]. Briefly, the cultured cells were seeded on the petri dish and counted using Count star BioMed automated cell counter. Around 10^6 live-cells were collected and were pelleted (2000×g, 3 min), followed by washing with PBS (2x). Cells were then resuspended in PBS buffer containing 0.1% BSA (1 × 10^6 cells/mL). […] The cell suspension was resuspended in PBS and analyzed with a FACSVerse^TM flow cytometer (BD Biosciences, LSRFortessa). About 10,000 events per tube were analyzed and the mean fluorescence intensity was detected and analyzed.
# as §2, §3, §4, §5
# A431 cells = assay: FACS assay in cultured cells; details: for HX103 dose-dependent signal (Supplementary Fig. 18): 20 µM = 100
# Method: as §1, §2, §3, §4, §5
# [4] = HX103 5 µM, 30 min, replicates n=1-3
smiles,measurement,setting,value
COc1cc2c(Nc3ccc(F)c(Cl)c3)ncnc2cc1OCCCNc1ccc(S(=O)(=O)N(C)C)c2nonc12 [HX103],Kinase activity,EGFR 19del; Log [HX103 (M)] -7.5,4.826 and 8.074 and 4.95
same,Kinase activity,EGFR 19del; Log [HX103 (M)] -8,14.14 and 14.3 and 14.2
same,Kinase activity,EGFR 19del; Log [HX103 (M)] -8.5,33.15 and 25.38 and 27.26
same,Kinase activity,EGFR 19del; Log [HX103 (M)] -9,51.95 and 59.57 and 58.76
same,IC50,EGFR 19del; n = 3,1.3 nM
same,decrease of inhibition toward T790M compared to 19del,EGFR T790M; IC50 T790M vs 19del,~ 750 fold
same,decrease of inhibition toward T790M compared to L858R,EGFR T790M; IC50 T790M vs L858R,~ 650 fold
same,Kinase activity,EGFR T790M; Log [HX103 (M)] -4.5,14.55 and 14.95 and 12.5
same,Kinase activity,EGFR T790M; Log [HX103 (M)] -5,16 and 19.07 and 16.33
same,Kinase activity,EGFR T790M; Log [HX103 (M)] -5.5,24.68 and 25.89 and 23.04
same,Kinase activity,EGFR T790M; Log [HX103 (M)] -6,50.45 and 49.72 and 50.33
same,Kinase activity,EGFR T790M; Log [HX103 (M)] -6.5,74.42 and 70.48 and 67.65
same,Kinase activity,EGFR T790M; Log [HX103 (M)] -7,85.94 and 86.13 and 86.01
same,Kinase activity,EGFR T790M; Log [HX103 (M)] -7.5,96.44 and 90.88 and 91.86
same,Kinase activity,EGFR T790M; Log [HX103 (M)] -8,104.4 and 100.7 and 101.1
same,Kinase activity,EGFR T790M; Log [HX103 (M)] -8.5,97.33 and 103.4 and 97.96
same,Kinase activity,EGFR T790M; Log [HX103 (M)] -9,98.09 and 98.85 and 98.65
same,IC50,EGFR T790M; n = 3,977 nM
same,IC50 at 48 h,MTT cytotoxicity assay,26000 nM
same,IC50,PC-9 cells [1],1800 nM
same,Stokes shift,[2],130 nm
same,excitation maximum,[2],340/440
same,absolute quantum yield,[2]; DMSO,42.4%
same,maximum UV absorption,[2]; DMSO,342/438
same,"Fluorescence intensity, HX103 only",[2]; wavelength 666 nm,328.882
same,"Fluorescence intensity, HX103 only",[2]; wavelength 669 nm,313.191
same,"Fluorescence intensity, HX103 only",[2]; wavelength 671 nm,290.291
same,"Fluorescence intensity, HX103 only",[2]; wavelength 673 nm,261.813
same,"Fluorescence intensity, HX103 only",[2]; wavelength 676 nm,236.251
same,"Fluorescence intensity, HX103 only",[2]; wavelength 678 nm,222.471
same,"Fluorescence intensity, HX103 only",[2]; wavelength 681 nm,229.28
same,"Fluorescence intensity, HX103 only",[2]; wavelength 683 nm,261.184
same,"Fluorescence intensity, HX103 only",[2]; wavelength 686 nm,315.405
same,"Fluorescence intensity, HX103 only",[2]; wavelength 688 nm,388.462
same,"Fluorescence intensity, HX103 only",[2]; wavelength 690 nm,476.875
same,"Fluorescence intensity, HX103 only",[2]; wavelength 693 nm,577.288
same,"Fluorescence intensity, HX103 only",[2]; wavelength 695 nm,686.662
same,"Fluorescence intensity, HX103 only",[2]; wavelength 698 nm,802.01
same,"Fluorescence intensity, HX103 only",[2]; wavelength 700 nm,920.343
same,Fluorescence intensity at 570 nm,"[2]; Fig. 2b, HX103 alone, n=1-3",8.2448 and 8.538 and 6.65
same,absolute quantum yield,[2]; PBS,5.8%
same,fluorescence emission wavelength,[2]; excitation at 440 nm,570 nm
same,subcellular distribution of HX103-labeled EGFR,H1975 cells,internalized and translocated in the endoplasmic reticulum
same,EGFR(+) HX103 (+) (%) AVE,"A549 cells; A549, AVE of n=3",13.21%
same,HX103 (+) (%) AVE,"A549 cells; A549, AVE of n=3",14.4253%
same,HX103 dose-dependent signal (Supplementary Fig. 18),"A549 cells; A549, HX103 0.04 µM",1.227 and 1.64 and 1.474
same,HX103 dose-dependent signal (Supplementary Fig. 18),"A549 cells; A549, HX103 0.37 µM",16.7962 and 13.0237 and 14.9399
same,HX103 dose-dependent signal (Supplementary Fig. 18),"A549 cells; A549, HX103 1.1 µM",32.8472 and 24.022 and 28.4446
same,HX103 dose-dependent signal (Supplementary Fig. 18),"A549 cells; A549, HX103 3.3 µM",43.6352 and 41.2034 and 42.4293
same,HX103 dose-dependent signal (Supplementary Fig. 18),"A549 cells; A549, HX103 10 µM",71.5104 and 62.9379 and 67.2341
same,HX103 dose-dependent signal (Supplementary Fig. 18),"A549 cells; A549, HX103 15 µM",96.2656 and 89.3616 and 85.8336
same,HX103 dose-dependent signal (Supplementary Fig. 18),"A549 cells; A549, HX103 20 µM",100
same,HX103 signal (Supplementary Fig. 7),"A549 cells; A549, HX103 alone or with Gefitinib, replicates n=1-3",102.046 and 98.7743 and 99.18
same,EGFR(+) HX103 (+) (%),"A549 cells; A549, replicates n=1-3",7.43% and 15.21% and 16.99%
same,HX103(+) (%),"A549 cells; A549, replicates n=1-3",14.626% and 17.32% and 11.33%
same,normalized MFI of HX103 labeling,A549 cells; [4],51.9313% and 58.1545% and 55.0429%
same,EGFR(+) HX103 (+) (%),"A549 cells; HX103 5 µM, replicates n=1-3",15.21% and 16.99% and 7.43%
same,normalized MFI of HX103 labeling,PC-9 cells [3]; [4],81.9742% and 91.6309% and 86.8026%
same,EGFR(+) HX103 (+) (%),"PC-9 cells [3]; HX103 5 µM, replicates n=1-3",64.51% and 67.13% and 48.39%
same,EGFR(+) HX103 (+) (%) AVE,"PC-9 cells [3]; PC-9, AVE of n=3",60.01%
same,HX103 (+) (%) AVE,"PC-9 cells [3]; PC-9, AVE of n=3",59.6433%
same,HX103 dose-dependent signal (Supplementary Fig. 18),"PC-9 cells [3]; PC-9, HX103 0.37 µM",18.3072 and 15.0075 and 16.6544
same,HX103 dose-dependent signal (Supplementary Fig. 18),"PC-9 cells [3]; PC-9, HX103 3.3 µM",59.5109 and 51.9447 and 55.7208
same,HX103 dose-dependent signal (Supplementary Fig. 18),"PC-9 cells [3]; PC-9, HX103 10 µM",68.1021 and 78.5978 and 73.3469
same,HX103 dose-dependent signal (Supplementary Fig. 18),"PC-9 cells [3]; PC-9, HX103 15 µM",80.0389 and 87.1198 and 83.5744
same,HX103 dose-dependent signal (Supplementary Fig. 18),"PC-9 cells [3]; PC-9, HX103 20 µM",100
same,HX103 signal (Supplementary Fig. 7),"PC-9 cells [3]; PC-9, HX103 alone or with Gefitinib, replicates n=1-3",103.242 and 99.7186 and 97.0394
same,EGFR(+) HX103 (+) (%),"PC-9 cells [3]; PC-9, replicates n=1-3",48.39% and 64.51% and 67.13%
same,HX103(+) (%),"PC-9 cells [3]; PC-9, replicates n=1-3",59.69% and 66.68% and 52.56%
same,EGFR(+) HX103 (+) (%) AVE,"A431 cells; A431, AVE of n=3",62.105%
same,HX103 (+) (%) AVE,"A431 cells; A431, AVE of n=3",75.74%
same,HX103 dose-dependent signal (Supplementary Fig. 18),"A431 cells; A431, HX103 0.37 µM",15.6053 and 17.5852 and 16.5942
same,HX103 dose-dependent signal (Supplementary Fig. 18),"A431 cells; A431, HX103 1.1 µM",27.0427 and 32.7871 and 29.9049
same,HX103 dose-dependent signal (Supplementary Fig. 18),"A431 cells; A431, HX103 3.3 µM",44.6928 and 49.6432 and 47.158
same,HX103 dose-dependent signal (Supplementary Fig. 18),"A431 cells; A431, HX103 10 µM",77.4475 and 86.2684 and 81.868
same,HX103 dose-dependent signal (Supplementary Fig. 18),"A431 cells; A431, HX103 15 µM",96.5825 and 89.3875 and 92.975
same,HX103 dose-dependent signal (Supplementary Fig. 18),"A431 cells; A431, HX103 20 µM",100
same,HX103 signal (Supplementary Fig. 7),"A431 cells; A431, HX103 alone or with Gefitinib, replicates n=1-3",114.212 and 76.0875 and 109.7
same,EGFR(+) HX103 (+) (%),"A431 cells; A431, replicates n=1-3",55.07% and 64.605% and 66.64%
same,HX103(+) (%),"A431 cells; A431, replicates n=1-3",96.31% and 66.39% and 64.52%
same,normalized MFI of HX103 labeling,A431 cells; [4],83.2618% and 101.288% and 92.2747%
same,EGFR(+) HX103 (+) (%),"A431 cells; HX103 5 µM, replicates n=1-3",~ 60% and 64.605% and 66.64% and 55.07%
